Assay results: PMC11277489, “Novel Piperazine Derivatives of Vindoline as Anticancer Agents” (International Journal of Molecular Sciences, 2024)

Columns and labels:
[1] = test system: HL-60(TB); test: NCI60 five-dose screen, Leukemia; assay type: cell-based; settings: Homo sapiens; HL-60(TB), Leukemia; five-dose screen; read-out: GI50
[2] = test system: MOLT-4; test: NCI60 five-dose screen, Leukemia; assay type: cell-based; settings: Homo sapiens; MOLT-4, Leukemia; five-dose screen; read-out: GI50
[3] = test system: RPMI-8226; test: NCI60 five-dose screen, Leukemia; assay type: cell-based; settings: Homo sapiens; RPMI-8226, Leukemia; five-dose screen; read-out: GI50
[4] = test system: A549/ATCC; test: NCI60 five-dose screen, Non-small Cell Lung Cancer; assay type: cell-based; settings: Homo sapiens; A549/ATCC, Non-small Cell Lung Cancer; five-dose screen; read-out: GI50
[5] = test system: EKVX; test: NCI60 five-dose screen, Non-small Cell Lung Cancer; assay type: cell-based; settings: Homo sapiens, Non-small Cell Lung Cancer, five-dose screen, read-out: GI50
[6] = test system: HOP-62; test: NCI60 five-dose screen, Non-small Cell Lung Cancer; assay type: cell-based; settings: Homo sapiens; HOP-62, Non-small Cell Lung Cancer; five-dose screen; read-out: GI50
[7] = test system: NCI-H23; test: NCI60 five-dose screen, Non-small Cell Lung Cancer; assay type: cell-based; settings: Homo sapiens; NCI-H23, Non-small Cell Lung Cancer; five-dose screen; read-out: GI50
[8] = test system: NCI-H522; test: NCI60 five-dose screen, Non-small Cell Lung Cancer; assay type: cell-based; settings: Homo sapiens; NCI-H522, Non-small Cell Lung Cancer; five-dose screen; read-out: GI50
[9] = test system: HCC-2998; test: NCI60 five-dose screen, Colon Cancer; assay type: cell-based; settings: Homo sapiens; HCC-2998, Colon Cancer; five-dose screen; read-out: GI50
[10] = test system: HCT-15; test: NCI60 five-dose screen, Colon Cancer; assay type: cell-based; settings: Homo sapiens; HCT-15, Colon Cancer; five-dose screen; read-out: GI50
[11] = test system: HT29; test: NCI60 five-dose screen, Colon Cancer; assay type: cell-based; settings: Homo sapiens, HT-29; HT29, Colon Cancer; five-dose screen; read-out: GI50
[12] = test system: SF-268; test: NCI60 five-dose screen, CNS Cancer; assay type: cell-based; settings: Homo sapiens; SF-268, CNS Cancer; five-dose screen; read-out: GI50
[13] = test system: SF-295; test: NCI60 five-dose screen, CNS Cancer; assay type: cell-based; settings: Homo sapiens; SF-295, CNS Cancer; five-dose screen; read-out: GI50
[14] = test system: SF-539; test: NCI60 five-dose screen, CNS Cancer; assay type: cell-based; settings: Homo sapiens; SF-539, CNS Cancer; five-dose screen; read-out: GI50
[15] = test system: U251; test: NCI60 five-dose screen, CNS Cancer; assay type: cell-based; settings: Homo sapiens, U-251; U251, CNS Cancer; five-dose screen; read-out: GI50
[16] = test system: LOX IMVI; test: NCI60 five-dose screen, Melanoma; assay type: cell-based; settings: Homo sapiens, Melanoma, five-dose screen, read-out: GI50
[17] = test system: M14; test: NCI60 five-dose screen, Melanoma; assay type: cell-based; settings: Homo sapiens; M14, Melanoma; five-dose screen; read-out: GI50
[18] = test system: SK-MEL-5; test: NCI60 five-dose screen, Melanoma; assay type: cell-based; settings: Homo sapiens; SK-MEL-5, Melanoma; five-dose screen; read-out: GI50
[19] = test system: UACC-257; test: NCI60 five-dose screen, Melanoma; assay type: cell-based; settings: Homo sapiens; UACC-257, Melanoma; five-dose screen; read-out: GI50
[20] = test system: OVCAR-5; test: NCI60 five-dose screen, Ovarian Cancer; assay type: cell-based; settings: Homo sapiens; OVCAR-5, Ovarian Cancer; five-dose screen; read-out: GI50
[21] = test system: OVCAR-8; test: NCI60 five-dose screen, Ovarian Cancer; assay type: cell-based; settings: Homo sapiens; OVCAR-8, Ovarian Cancer; five-dose screen; read-out: GI50
[22] = test system: SK-OV-3; test: NCI60 five-dose screen, Ovarian Cancer; assay type: cell-based; settings: Homo sapiens; SK-OV-3, Ovarian Cancer; five-dose screen; read-out: GI50
[23] = test system: 786–0; test: NCI60 five-dose screen, Renal Cancer; assay type: cell-based; settings: Homo sapiens; 786–0, Renal Cancer; five-dose screen; read-out: GI50
[24] = test system: A498; test: NCI60 five-dose screen, Renal Cancer; assay type: cell-based; settings: Homo sapiens; A498, Renal Cancer; five-dose screen; read-out: GI50
[25] = test system: RXF 393; test: NCI60 five-dose screen, Renal Cancer; assay type: cell-based; settings: Homo sapiens, RXF 393, Renal Cancer
[26] = test system: MCF7; test: NCI60 five-dose screen, Breast Cancer; assay type: cell-based; settings: Homo sapiens; MCF7, Breast Cancer; five-dose screen; read-out: GI50
[27] = test system: MDA-MB-468; test: NCI60 five-dose screen, Breast Cancer; assay type: cell-based; settings: Homo sapiens; MDA-MB-468, Breast Cancer; five-dose screen; read-out: GI50
[28] = test system: CCRF-CEM; test: NCI60 one-dose screen (10 μM), Leukemia; assay type: cell-based; settings: Homo sapiens, 10 μM, Leukemia, read-out: Growth percent rate
[29] = test system: SR; test: NCI60 one-dose screen (10 μM), Leukemia; assay type: cell-based; settings: Homo sapiens, 10 μM, Leukemia, read-out: Growth percent rate
[30] = test system: NCI-H226; test: NCI60 one-dose screen (10 μM), Non-small Cell Lung Cancer; assay type: cell-based; settings: Homo sapiens; 10 μM; NCI-H226, Non-small Cell Lung Cancer; read-out: Growth percent rate
[31] = test system: KM12; test: NCI60 one-dose screen (10 μM), Colon Cancer; assay type: cell-based, human; settings: Homo sapiens; 10 μM; KM12, Colon Cancer; read-out: Growth percent rate
[32] = test system: SNB-75; test: NCI60 one-dose screen (10 μM), CNS Cancer; assay type: cell-based, human; settings: Homo sapiens; 10 μM; SNB-75, CNS Cancer; read-out: Growth percent rate
[33] = test system: SK-MEL-2; test: NCI60 one-dose screen (10 μM), Melanoma; assay type: cell-based; settings: Homo sapiens; 10 μM; SK-MEL-2, Melanoma; read-out: Growth percent rate
[34] = test system: UACC-62; test: NCI60 one-dose screen (10 μM), Melanoma; assay type: cell-based; settings: Homo sapiens; 10 μM; UACC-62, Melanoma; read-out: Growth percent rate
[35] = test system: OVCAR-3; test: NCI60 one-dose screen (10 μM), Ovarian Cancer; assay type: cell-based; settings: Homo sapiens; 10 μM; OVCAR-3, Ovarian Cancer; read-out: Growth percent rate
[36] = test system: OVCAR-5; test: NCI60 one-dose screen (10 μM), Ovarian Cancer; assay type: cell-based; settings: Homo sapiens; 10 μM; OVCAR-5, Ovarian Cancer; read-out: Growth percent rate
[37] = test system: NCI/ADR-RES; test: NCI60 one-dose screen (10 μM), Ovarian Cancer; assay type: cell-based; settings: Homo sapiens, 10 μM, Ovarian Cancer, read-out: Growth percent rate
[38] = test system: SK-OV-3; test: NCI60 one-dose screen (10 μM), Ovarian Cancer; assay type: cell-based; settings: Homo sapiens; 10 μM; SK-OV-3, Ovarian Cancer; read-out: Growth percent rate
[39] = test system: UO-31; test: NCI60 one-dose screen (10 μM), Renal Cancer; assay type: cell-based; settings: Homo sapiens; 10 μM; UO-31, Renal Cancer; read-out: Growth percent rate
[40] = test system: DU-145; test: NCI60 one-dose screen (10 μM), Prostate Cancer; assay type: cell-based; settings: Homo sapiens; 10 μM; DU-145, Prostate Cancer; read-out: Growth percent rate
[41] = test system: MDA-MB-231/ATCC; test: NCI60 one-dose screen (10 μM), Breast Cancer; assay type: cell-based, human; settings: Homo sapiens; 10 μM; MDA-MB-231/ATCC, Breast Cancer; read-out: Growth percent rate
[42] = test system: BT-549; test: NCI60 one-dose screen (10 μM), Breast Cancer; assay type: cell-based; settings: Homo sapiens; 10 μM; BT-549, Breast Cancer; read-out: Growth percent rate
[43] = test system: T-47D; test: NCI60 one-dose screen (10 μM), Breast Cancer; assay type: cell-based; settings: Homo sapiens, T47D; 10 μM; T-47D, Breast Cancer; read-out: Growth percent rate
[44] = test system: MDA-MB-468; test: NCI60 one-dose screen (10 μM), Breast Cancer; assay type: cell-based; settings: Homo sapiens; 10 μM; MDA-MB-468, Breast Cancer; read-out: Growth percent rate
[45] = test system: HOP-92; test: NCI60 one-dose screen (10 μM), Non-small Cell Lung Cancer; assay type: cell-based; settings: Homo sapiens; 10 μM; HOP-92, Non-small Cell Lung Cancer; read-out: Growth percent rate
[46] = test system: PC-3; test: NCI60 one-dose screen (10 μM), Prostate Cancer; assay type: cell-based; settings: Homo sapiens; 10 μM; PC-3, Prostate Cancer; read-out: Growth percent rate

CCC12C=CCN3CCC4(c5cc(NC(=O)CN6CCN(C(c7ccc(F)cc7)c7ccc(F)cc7)CC6)c(OC)cc5N(C)C4C(O)(C(=O)OC)C1OC(C)=O)C32 (centres unmarked) [Compound 20]
GI50 [1]: 2190 nM
GI50 [2]: 2140 nM
GI50 [3]: 1910 nM
GI50 [4]: 4370 nM
GI50 [5]: 4070 nM
GI50 [6]: 89100 nM
GI50 [7]: 6760 nM
GI50 [8]: 10200 nM
GI50 [9]: 3890 nM
GI50 [10]: 3550 nM
GI50 [11]: 2880 nM
GI50 [12]: 5130 nM
GI50 [13]: 3470 nM
GI50 [14]: 4070 nM
GI50 [15]: 6030 nM
GI50 [16]: 3240 nM
GI50 [17]: 4070 nM
GI50 [18]: 2340 nM
GI50 [19]: 5250 nM
GI50 [20]: 3550 nM
GI50 [21]: 7590 nM
GI50 [22]: 5890 nM
GI50 [23]: 7760 nM
GI50 [24]: 5620 nM
GI50 [25]: 2690 nM
GI50 [26]: 2950 nM
GI50 [27]: 3020 nM
activity at 10 µM [28]: -18.9%
activity at 10 µM [29]: 0.34%
activity at 10 µM [30]: 24.1%
activity at 10 µM [31]: 20.2%
activity at 10 µM [32]: -60.5%
activity at 10 µM [33]: -34.7%
activity at 10 µM [34]: 28.5%
activity at 10 µM [35]: 36.5%
activity at 10 µM [36]: 66.9%
activity at 10 µM [37]: 20.9%
activity at 10 µM [38]: 45.4%
activity at 10 µM [39]: 27.2%
activity at 10 µM [40]: 37.1%
activity at 10 µM [41]: -4.47%
activity at 10 µM [42]: -37.5%
activity at 10 µM [43]: 10.2%
activity at 10 µM [44]: 10.9%

CC[C@]12C=CCN3CC[C@@]4(c5ccc(OC)cc5N(C)[C@H]4[C@@](O)(C(=O)OC)[C@@H]1OC(=O)CCCN1CCN(Cc4ccc(C(F)(F)F)cc4)CC1)[C@@H]32 [Compound 23]
GI50 [1]: 1740 nM
GI50 [2]: 1150 nM
GI50 [3]: 2000 nM
GI50 [4]: 1780 nM
GI50 [5]: 1700 nM
GI50 [6]: 1740 nM
GI50 [7]: 1910 nM
GI50 [8]: 1700 nM
GI50 [9]: 1510 nM
GI50 [10]: 1740 nM
GI50 [11]: 1660 nM
GI50 [12]: 1350 nM
GI50 [13]: 1780 nM
GI50 [14]: 1580 nM
GI50 [15]: 1660 nM
GI50 [16]: 1780 nM
GI50 [17]: 1550 nM
GI50 [18]: 1350 nM
GI50 [19]: 1740 nM
GI50 [20]: 1620 nM
GI50 [21]: 1820 nM
GI50 [22]: 2000 nM
GI50 [23]: 1480 nM
GI50 [24]: 1620 nM
GI50 [25]: 1350 nM
GI50 [26]: 1550 nM
GI50 [27]: 1000 nM
activity at 10 µM [28]: -63.1%
activity at 10 µM [29]: -55.2%
activity at 10 µM [45]: -70.7%
activity at 10 µM [30]: -32.3%
activity at 10 µM [31]: -70.9%
activity at 10 µM [32]: -68.8%
activity at 10 µM [33]: -72.6%
activity at 10 µM [34]: -91.5%
activity at 10 µM [35]: -68.4%
activity at 10 µM [36]: -86%
activity at 10 µM [38]: -44%
activity at 10 µM [39]: -69.5%
activity at 10 µM [46]: -72%
activity at 10 µM [40]: -64.9%
activity at 10 µM [41]: -94.4%
activity at 10 µM [42]: -92.4%
activity at 10 µM [43]: -20%
activity at 10 µM [44]: -58.2%
